For 100 molecules, Kd results are on record in PubChem BioAssay AID1549 (Sanford-Burnham Center for Chemical Genomics, 2009).

The source made the active and inactive calls. The rule behind the calls is not given here.

This experiment deals with Influenza A virus M2 proton channel (A/TW/4845/1999 H1N1). Description: M2 proton channel binding, NMR based, influenza A virus H1N1 strain (AID 1549). Particulars: NMR binding screen, M2 protein.
The term Kd denotes a measure of binding affinity in units of concentration. `COc1ccc(-c2cc(=O)c3c(OC)c(OC)c(OC)c(OC)c3o2)cc1OC`: the Kd is > 4 mM (inactive).

As to `COC(=O)NNc1ncnc(N)c1[N+](=O)[O-]`, the Kd was > 4 mM (inactive).

On to `Cc1cc(C(=O)Nn2cnnc2)cs1`, for which the Kd was > 4 mM (inactive). Next, `CSc1nc(-c2ccccc2)ccc1C(N)=O`: > 4 mM (inactive).

On to `CCNC(=O)CC1Nc2ccccc2NC1=O` (stereo not given), for which the Kd was > 4 mM (inactive).

With `COc1cc([C@@H]2c3cc4c(cc3[C@H](OC(C)=O)[C@H]3COC(=O)[C@H]23)OCO4)cc(OC)c1OC`, the Kd was > 4 mM (inactive). Next, `CC1(C)C2CC[C@]3(C)C(C(=O)C=C4[C@H]5C[C@@](C)(C(=O)O)CC[C@]5(C)CC[C@]43C)[C@@]2(C)CC[C@@H]1O` (stereo not given in full): > 4 mM (inactive). Next, `CN1C(=O)/C(=C/c2ccccc2O)NC1=S`: > 4 mM (inactive). For the molecule `CCCNC(=O)CSc1nnc(C)s1`, the Kd was > 4 mM (inactive). Consider `CCCCN1C(=O)N(C)C2NC(=O)NC21` (stereo not given), for which the Kd was > 4 mM (inactive). With `Cc1nnc(NCCO)[nH]c1=O` the figure was > 4 mM (inactive); with `CC(=O)O[C@H]1CC[C@@]2(C)C(=CC(=O)C3C4CCC(C(C)CCCC(C)C)[C@@]4(C)CCC32)C1` (stereo not given in full), > 4 mM (inactive); with `N#Cc1cnn2c(C(F)(F)F)cc(C(F)(F)F)nc12`, > 4 mM (inactive). With `NCc1ccc2c(c1)OCO2` the figure was > 4 mM (inactive).

As for `O=c1c2ccccc2nc2n1CCCCN2`, the Kd is > 4 mM (inactive).

Turning to `CN1CCN(C(=O)c2ccco2)CC1`, the Kd is > 4 mM (inactive). With `CC(C(N)=O)N1C(=O)c2ccccc2C1=O` (stereo not given) the figure was > 4 mM (inactive).

On to `O=C1C=C(O)c2ccccc2C1=O`, for which the Kd is > 4 mM (inactive).

Consider `CC(=O)c1c(C)nn(CC(=O)O)c1C`, for which the Kd is > 4 mM (inactive). Next, `C=C[C@H]1CN2CC[C@H]1C[C@@H]2[C@@H](O)c1ccnc2ccc(OC)cc12`: > 4 mM (inactive); `O=c1cnnc(Nc2ccc(O)cc2)[nH]1`: > 4 mM (inactive). Next, `CCOC(=O)c1[nH]c(C)cc1C`: > 4 mM (inactive); `Nc1ccc2c(c1)N1CCN=C1S2`: > 4 mM (inactive); `C/C=C(\C)C(=O)OC1[C@@H]2C=C3C(CC[C@]4(C)C3CC(=O)O[C@H]4c3ccoc3)C(C)(C2=O)[C@@H](C(O)C(=O)OC)C1(C)C` (stereo not given in full): > 4 mM (inactive). On to `CC12CN3CC(C)(CN(C1)C3c1cccs1)C2O` (stereo not given), for which the Kd was > 4 mM (inactive). Next, `CC(=O)O[C@@H]1CC2C(C)(C)C(=O)C=C[C@]2(C)C2CC[C@]3(C)C(=CC(=O)O[C@H]3c3ccoc3)[C@@]21C` (stereo not given in full): > 4 mM (inactive); `Cn1c(=O)c2c(ncn2C)n(C)c1=O`: > 4 mM (inactive); `Cc1noc(C)c1C(=O)NCc1cccs1`: > 4 mM (inactive). With `CS(=O)(=O)CCCCN=C=S` the figure was > 4 mM (inactive); with `CC(C)Oc1ccc(NC(N)=O)cc1`, > 4 mM (inactive); with `CN1C2C[C@H](OC(=O)[C@H](CO)c3ccccc3)C[C@H]1[C@@H](O)C2`, > 4 mM (inactive). On to `Cn1c(=O)c2[nH]cnc2n(-c2ccccc2)c1=O`, for which the Kd is > 4 mM (inactive). With `Cc1cc(C)n(CC(=O)NC2CCCCC2)n1` the figure was > 4 mM (inactive); with `O=C(Nc1ccncc1)Nc1ccc(F)cc1F`, > 4 mM (inactive). Next, `O=C(Cc1cccs1)Nc1nncs1`: > 4 mM (inactive); `COc1ccc2[nH]cc(CCN(C)C)c2c1`: > 4 mM (inactive); `CNC(=O)Nc1cccc(C(F)(F)F)c1`: > 4 mM (inactive). Next, `NC(=O)c1ccsc1NC(=O)c1ccccc1[N+](=O)[O-]`: > 4 mM (inactive).

As to `CC1(C)NC(=O)N(CN2CCOCC2)C1=O`, the Kd is > 4 mM (inactive). With `O=C(O)C1NCCc2ccccc21` (stereo not given) the figure was > 4 mM (inactive). With `CC(=O)Nc1cccc(-c2n[nH]c(=S)n2C)c1` the figure was > 4 mM (inactive); with `c1cc2c(cc1[C@H]1OC[C@H]3[C@@H]1CO[C@H]3c1ccc3c(c1)OCO3)OCO2`, > 4 mM (inactive). With `OCc1ccc(-n2cccn2)cc1` the figure was > 4 mM (inactive); with `O=c1ccc2ccccc2o1`, > 4 mM (inactive). `O=C(O)c1snnc1-c1ccccc1`: the Kd was > 4 mM (inactive). As for `O=c1c(-c2cccs2)[n+]([O-])c2ccccc2n1O`, the Kd was > 4 mM (inactive). Next, `O=C(Cc1cccs1)Nc1ccon1`: > 4 mM (inactive).

As for `CC(=O)N1C(=S)NC(=O)/C1=C\c1cccnc1`, the Kd was > 4 mM (inactive). With `O=c1c2ccccc2ncn1C1CCCCC1` the figure was > 4 mM (inactive); with `Cc1nn(-c2ccccc2)c(Cl)c1C(N)=O`, > 4 mM (inactive); with `CC(=O)Oc1ccc2c(c1)c(C(C)=O)c(C)n2C`, > 4 mM (inactive). Next, `Cc1nc(SCC(=O)c2c[nH]c3ccccc23)n[nH]1`: > 4 mM (inactive); `COC(=O)c1ccc2snnc2c1`: > 4 mM (inactive). In the case of `O=CN1CCN(C(=O)c2ccc(F)cc2)CC1`, the Kd was > 4 mM (inactive). As to `Cc1nc(-c2ccccc2)ncc1CO`, the Kd was > 4 mM (inactive).

With `C=CCn1c(=S)[nH]c2ccc(Br)cc2c1=O`, the Kd was > 4 mM (inactive). With `CN1CCn2c1nc(N1CCCCC1)nc2=O` the figure was > 4 mM (inactive); with `Cn1c(SCC(N)=O)nnc1-c1cccnc1`, > 4 mM (inactive); with `O=C(O)c1ccc2c(c1)CCO2`, > 4 mM (inactive).

For the molecule `c1coc(CNc2ncnc3nc[nH]c23)c1`, the Kd was > 4 mM (inactive).

For the molecule `CC(O)C(=O)N/N=C/c1ccccc1` (stereo not given), the Kd is > 4 mM (inactive). Next, `O=C(O)c1ccc2c(c1)OCO2`: > 4 mM (inactive); `CSc1ncc(C(=O)O)n1Cc1ccccc1`: > 4 mM (inactive). Next, `COc1ccc([C@@H]2CC(=O)c3c(O)cc(O)cc3O2)cc1O`: > 4 mM (inactive). Turning to `Oc1cc(O)c2c(c1)O[C@H](c1cc(O)c(O)c(O)c1)[C@H](O)C2`, the Kd was > 4 mM (inactive). With `C=C(C)[C@@H]1CC[C@]2(CO)CC[C@]3(C)[C@H](CCC4[C@@]5(C)CC[C@H](O)C(C)(C)C5CC[C@]43C)C12` (stereo not given in full) the figure was > 4 mM (inactive); with `Cc1sc(N)c(C(N)=O)c1C`, > 4 mM (inactive); with `Cc1cc(C)nc(/N=C(/N)Nc2cccc(F)c2)n1`, > 4 mM (inactive). Regarding `O=Cc1c(N2CCOCC2)nc2ccccn2c1=O`, the Kd was > 4 mM (inactive). Consider `CCc1ccccc1OCc1nnc(N)s1`, for which the Kd is > 4 mM (inactive). Next, `CC(NC(=O)C1CCCCC1)C(=O)NC1=NCCS1` (stereo not given): > 4 mM (inactive). `COc1ccc(C)cc1S(N)(=O)=O`: the Kd is > 4 mM (inactive). Take `C=C1C[C@]23C[C@@]1(O)CC[C@H]2[C@@]12C=C[C@H](O)C(C)(C(=O)O1)[C@H]2[C@@H]3C(=O)O`: the Kd is > 4 mM (inactive). With `NC(=O)c1ccc(-c2csnn2)cc1` the figure was > 4 mM (inactive). Next, `COc1c2occc2c(OC)c2c(=O)cc(C)oc12`: > 4 mM (inactive); `O=P(O)(Cc1ccccc1)c1ccccc1`: > 4 mM (inactive); `COc1ccccc1Nc1nncc(=O)[nH]1`: > 4 mM (inactive). Consider `CC(=O)O[C@@H]1C=C[C@@]2(C)C(C[C@@H](OC(C)=O)[C@@]3(C)C4=CC(=O)O[C@@H](c5ccoc5)[C@]4(C)CCC23)C1(C)C` (stereo not given in full), for which the Kd is > 4 mM (inactive). Next, `Cc1c(C(=O)Nc2ccccn2)oc2ccccc12`: > 4 mM (inactive); `O=C(O)c1cccnc1-c1nc2ccccc2s1`: > 4 mM (inactive); `Cn1c(O)c(/C=C2\C=CC=N2)c(=O)[nH]c1=O`: > 4 mM (inactive). `S=c1[nH]ncn1-c1ccccc1`: the Kd is > 4 mM (inactive).

Regarding `O=c1[nH]cc(COCc2ccccc2)c(=O)[nH]1`, the Kd was > 4 mM (inactive). With `CC(=O)Nc1nc(C)nc(-c2ccccc2)c1C(C)=O` the figure was > 4 mM (inactive). As for `COc1cc(OC)c(-c2c(OC)cc(OC)cc2OC)c(OC)c1`, the Kd was > 4 mM (inactive). For the molecule `O=C(Nc1c[nH]c(=O)[nH]c1=O)c1cccs1`, the Kd is > 4 mM (inactive). Next, `NC(=O)Nc1cccc(C(F)(F)F)c1`: > 4 mM (inactive).

In the case of `NC1=NC(=O)C(CC(=O)Nc2ccccc2F)S1` (stereo not given), the Kd was > 4 mM (inactive). Regarding `COc1ccc(-c2coc3cc(OC)cc(OC)c3c2=O)cc1`, the Kd is > 4 mM (inactive). `O=C(O)C1CCN(C(=O)c2cccs2)CC1`: the Kd is > 4 mM (inactive). With `CC(=O)c1c(O)cc(C)n(Cc2ccccc2)c1=O` the figure was > 4 mM (inactive). On to `CC(=O)c1c(O)n(C)c(=S)n(C)c1=O`, for which the Kd was > 4 mM (inactive). With `CC1(C)C2CC(=O)[C@]3(C)C(CC[C@@]4(C)[C@H](c5ccoc5)OC(=O)[C@H]5O[C@]543)[C@@]2(C)C(=O)C[C@H]1O` (stereo not given in full) the figure was > 4 mM (inactive); with `NC(=O)c1ccsc1NC(=O)c1ccco1`, > 4 mM (inactive); with `Cc1cc2ncc(C(=O)O)c(C)n2n1`, > 4 mM (inactive).

As for `Nc1nnc(SCc2ccc(F)cc2Cl)s1`, the Kd was > 4 mM (inactive). Next, `O=C(NCCO)c1ccccc1I`: > 4 mM (inactive); `C=C1C2=CC(=O)O[C@@H](c3ccoc3)[C@]2(C)CCC1[C@@]1(C)C=CC(=O)C(C)(C)[C@@H]1CC(=O)OC` (stereo not given in full): > 4 mM (inactive); `O=c1[nH]cc(N2CCCCC2)c(=O)[nH]1`: > 4 mM (inactive). With `O=C(O)c1cc2ccccc2[nH]1` the figure was > 4 mM (inactive).
